The numbers were not newly measured in PMC7687107 (Chemmedchem, 2020), which cites them from elsewhere.

The Kd is the concentration at which binding is half-saturated.

In the data set the target is tRNA guanine transglycosylase (TGT) (Zymomonas mobilis, UniProt P28720). Nature of the data set: SPR. It counts as binding.
Sequence of tRNA guanine transglycosylase (TGT) (P28720 2-386): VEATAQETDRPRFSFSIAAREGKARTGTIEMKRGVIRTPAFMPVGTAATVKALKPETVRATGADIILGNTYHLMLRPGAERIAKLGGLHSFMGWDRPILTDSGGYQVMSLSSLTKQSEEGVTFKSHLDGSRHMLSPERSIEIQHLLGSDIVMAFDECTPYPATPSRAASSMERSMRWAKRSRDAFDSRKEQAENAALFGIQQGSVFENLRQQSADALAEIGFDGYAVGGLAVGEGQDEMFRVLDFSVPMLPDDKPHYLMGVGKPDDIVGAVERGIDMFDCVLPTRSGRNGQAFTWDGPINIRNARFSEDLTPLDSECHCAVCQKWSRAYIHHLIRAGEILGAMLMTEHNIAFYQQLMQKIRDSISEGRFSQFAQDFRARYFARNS

`CNc1nc2c(CCC3OC(OC)C(O)C3O)c3[nH]c(N)nc(=O)c3cc2[nH]1` (stereo not shown) [compound 1, 6‐amino‐4‐[2‐(3,4‐dihydroxy‐5‐methoxyoxolan‐2‐yl)ethyl]‐2‐(methylamino)‐1H,5H‐imidazo[4,5‐g]quinazolin‐8‐one]: the Kd is 68 ± 5 nM.
